Experiment: Thiol Vapor Pressure Suppression (TVPS) index measurement, zNose fast GC headspace
Conditions: 5 μl compound, 100 μl 1% v/v butanethiol in ethanol, 37° C. for 4 hours
From the text: (§1) Thiol Vapor Pressure Suppression (TVPS) index is a measure of the reduction in butanethiol concentration in the headspace by a compound, as measured using a fast GC instrument, the zNose 7100 (Electronic Sensor Technologies, Newbury Park, Calif.).
as §1, with “Calif.) based on an Surface Acoustic Wave (SAW) Quartz microbalance detector, or equivalent.” for “Calif.).”
Before any measurements the instrument is calibrated according to manufacturer's instructions under the same experimental settings. The instrument has a DB-5 column (also available from Electronic Sensor Technologies, Newbury Park, Calif.) 1 m in length, 0.25 μm phase thickness, and 0.25 mm in diameter.
For analysis, the zNose is programmed with the Sensor Temperature, Inlet Temperature, Valve Temperature, and Initial Column Temperature all set to 40° C. The oven is temperature gradient is programmed at a rate of 10° C./s from 40° C. to a final temperature of 200° C.
TVPS of a compound is measured in the following way: 100 μl±1 μl of a 1% v/v butanethiol (99%, purity, available from Sigma-Aldrich, St. Louis, Mo.) solution in ethanol (200 proof) is added into a 1 ml vial (8×40 mm). These vials are borosilcate glass straight walled vial. In another 1 ml vial (8×40 mm), 5 μl±0.2 μl of the compound is added. Both open vials are then placed inside a 20 mL headspace vial (22×75 mm), and the vial is immediately sealed using a screw thread closure with PTFE/Silicone septa. The vial is heated to 37° C. for 4 hours. After 4 hours, the vial is removed from the oven and let to equilibrate at 25° C.±2° C. for 15 minutes. The headspace inside the vial is sampled using the zNose is sampled for 10 s and analyzed following the experimental protocol outlined above. Samples with butanethiol alone, and the volatile active alone, are run using the same protocol to identify the peaks for both materials. An acceptable retention index for butanethiol is 720±30. If the peaks butanethiol peak and the volatile material peak co-elute, one skilled in the art can modify the protocol settings to separate those peaks to achieve a minimum resolution of 1.5. For example one can change the column temperature ramp rate. In between samples, the instrument needs to be cleaned to remove any trace materials. To clean the instrument, the instrument is run without samples as needed until no peaks greater than 100 counts are observed.
The amount of butanethiol in the headspace is measured from the area of the peak on the chromatograph for butanethiol (ABtSH,Rx). To calculate the percentage of butanethiol reduction in the headspace, a control with the butanethiol solution without the volatile material is run in the same manner and the area is measured as well (ABtSH,C). TVPS is then measured as the percentage reduction in butanethiol area calculated using the following formula: […]

Compared with `Cc1ccc(C=O)s1` [5-methyl-2-thiophene-carboxaldehyde], `CC(C)c1cccc(C(C)CC=O)c1` (centres unmarked) [Florhydral] is lower in “TVPS (percentage reduction in butanethiol headspace peak area)” value: 67.4 for the first, 53.3 for the second.

Going from `C=CC(C)CCC=C(C)CCC=O` (centres unmarked) [Floral Super] to `CC(C)=CCCC(C)C=O` (centres unmarked) [melonal], the “TVPS (percentage reduction in butanethiol headspace peak area)” value falls from 52.4 to 20.4.

First: CCCCCCC(C=O)=Cc1ccccc1 [Hexylcinnamic aldehyde]
Second: CC(C)=CCCC(C)CCCC(C)C=O (centres unmarked) [adoxal]
The “TVPS (percentage reduction in butanethiol headspace peak area)” value of the first is lower: 8.0 for the first, 24.4 for the second.

Compared with `CC1=CC(C)C(C=O)CC1` (centres unmarked) [ligustral], `CC(C)=CCC/C(C)=C\C=O` [neral] is lower in “TVPS (percentage reduction in butanethiol headspace peak area)” value: 42.5 for the first, 17.1 for the second.

In the case of `CCC/C=C/C=O` [trans-2-hexenal], the “TVPS (percentage reduction in butanethiol headspace peak area)” value is reported as 27.1.

Experiment: Fragrance (OCOC) release from cyclodextrin complexes on feminine hygiene pad, SPME-GC/MS headspace
Format: physicochemical
Conditions: 1.00 mL water, headspace at 5, 10, 30 min, FIG. 2
From the text: The results are shown in the graph of FIG. 2. After dosing with water the headspace was sampled using Solid Phase Micro-Extraction (a suitable fiber assembly is a 2 cm Stableflex 24 Ga, 50/30 μm DVB/CAR/PDMS available from Supelco, Pa. or equivalent) followed by gas chromatography/mass spectrometry (a suitable unit is the 5777A Mass Selective Detector (MSD) also available from Agilent, or equivalent) with a GERSTEL Multipurpose Sampler (Gerstel, Liticumo, Md. or equivalent) to quantify the OCOC release.
The model OCOC used is a neat mixture of benzaldehyde (1.6 g, 15.08 mmols), ligustral (1.6 g, 11.58 mmols), citral (1.6 g, 10.51 mmols), cinnamic aldehyde (1.6 g, 12.11 mmols), and florhydral (1.6 g, 8.41 mmols). All components are available from Sigma Aldrich, or equivalent. The mixture is homogenized before use.
The Standard Pad Substrates are prepared by cutting a 10 cm lateral strip across the whole product centered at the longitudinal center of an Always Ultra normal size pad.
A mixture of the model OCOC for each β-cyclodextrin type was solubilized in water at a one-to-one molar ratio (β-cyclodextrin/OCOC). The amount of water used for the complexation was adjusted for each β-cyclodextrin type according to its individual water solubility to ensure complete dissolution of the β-cyclodextrin complex. Each mixture of β-cyclodextrin and OCOC in water was thoroughly homogenized. […]

For `COC[C@H]1O[C@@H]2O[C@H]3[C@H](O)[C@@H](OC)[C@@H](O[C@H]4[C@H](O)[C@@H](OC)[C@@H](O[C@H]5[C@H](O)[C@@H](OC)[C@@H](O[C@H]6[C@H](O)[C@@H](OC)[C@@H](O[C@H]7[C@H](O)[C@@H](OC)[C@@H](O[C@H]8[C@H](O)[C@@H](OC)[C@@H](O[C@H]1[C@H](O)[C@H]2OC)O[C@@H]8COC)O[C@@H]7COC)O[C@@H]6COC)O[C@@H]5COC)O[C@@H]4COC)O[C@@H]3COC` [2,6-dimethyl-β-cyclodextrin, 2,6-Di-O-methyl-β-cyclodextrin], the “Percent release of fragrance versus conventional β-cyclodextrin complex” value was “much higher percent release of fragrance than does conventional β-cyclodextrin”.

With `COC[C@H]1O[C@@H]2O[C@H]3[C@H](O)[C@@H](OC)[C@@H](O[C@H]4[C@H](O)[C@@H](OC)[C@@H](O[C@H]5[C@H](O)[C@@H](OC)[C@@H](O[C@H]6[C@H](O)[C@@H](OC)[C@@H](O[C@H]7[C@H](O)[C@@H](OC)[C@@H](O[C@H]8[C@H](O)[C@@H](OC)[C@@H](O[C@H]1[C@H](O)[C@H]2OC)O[C@@H]8COC)O[C@@H]7COC)O[C@@H]6COC)O[C@@H]5COC)O[C@@H]4COC)O[C@@H]3COC` [2,6-dimethyl-β-cyclodextrin, 2,6-Di-O-methyl-β-cyclodextrin] the “Release of fragrance versus 2,3,6-trimethyl-β-cyclodextrin complex” value was “much higher release of fragrance than does 2, 3, 6-trimethyl-β-cyclodextrin”.

— US10427133B2, “Absorbent article comprising cyclodextrin complexes” (The Procter & Gamble Company, priority 2016, dated 2019)
